These results are taken from US10093630B2, “Pyrazole compounds and methods of making and using same” (ABIDE THERAPEUTICS, INC., priority 2014, dated 2018).

For orientation: inhibition means the percentage by which the read-out fell short of the control. Broadly, the IC50 is the concentration that inhibits the measured activity by half.

What all share (test): In vitro competitive activity-based protein profiling (gel-based, FP-Rh or HT-01 probe)
Assay type in all cases: biochemical

The target of assay [1] is T1, ABHD6 (Mus musculus, UniProt Q8R2Y0).
T1 construct: Proteomes (mouse brain membrane fraction or cell lysates); from tissue; host or cells: mouse brain membrane fraction (or cell lysates, not specified)
T1 sequence (Q8R2Y0 1-336): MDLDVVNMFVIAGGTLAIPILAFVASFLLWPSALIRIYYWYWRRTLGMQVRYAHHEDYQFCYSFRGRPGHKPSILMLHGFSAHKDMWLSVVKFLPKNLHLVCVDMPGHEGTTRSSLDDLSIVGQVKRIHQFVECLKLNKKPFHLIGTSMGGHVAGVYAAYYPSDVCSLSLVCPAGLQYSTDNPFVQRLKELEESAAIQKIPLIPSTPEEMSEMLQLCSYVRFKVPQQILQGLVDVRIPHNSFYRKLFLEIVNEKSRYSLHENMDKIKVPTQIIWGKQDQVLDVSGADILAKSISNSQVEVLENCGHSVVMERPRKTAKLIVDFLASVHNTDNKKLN
The settings on record: for inhibition at 1 µM: 1 μM inhibitor, read-out: % Inhibition at 1 μM, C = ABHD6; for inhibition at 10 µM: 10 μM inhibitor, read-out: % Inhibition at 10 μM, C = ABHD6. Put shortly:
(§1)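 Mouse brain membrane or cell lysate proteomes (1.0 mg/mL) preincubated with inhibitors 30 min at 37° C, then labelled with FP-Rh or HT-01 for 30 min at 37° C. After SDS-PAGE, activity quantified from fluorescent band intensity.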

Assay [2] concerns the target T2, MAGL (Mus musculus, UniProt O35678).
T2 construct: Proteomes (mouse brain membrane fraction or cell lysates); from tissue; host or cells: mouse brain membrane fraction (or cell lysates, not specified)
T2 sequence (O35678 1-303): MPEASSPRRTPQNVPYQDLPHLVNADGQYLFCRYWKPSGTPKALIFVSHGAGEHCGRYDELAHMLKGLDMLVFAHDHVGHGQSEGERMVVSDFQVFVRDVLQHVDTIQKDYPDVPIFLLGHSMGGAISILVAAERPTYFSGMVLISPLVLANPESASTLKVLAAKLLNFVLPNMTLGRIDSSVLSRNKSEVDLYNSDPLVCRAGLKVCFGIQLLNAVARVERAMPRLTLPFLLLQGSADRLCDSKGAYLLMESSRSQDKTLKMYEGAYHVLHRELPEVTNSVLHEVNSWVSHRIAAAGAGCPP
The settings on record: for inhibition at 1 µM: 1 μM inhibitor; for inhibition at 10 µM: 10 μM inhibitor. Put shortly: as §1

For assay [3], the target named is T3, FAAH (Mus musculus, UniProt O08914).
T3 construct: Proteomes (mouse brain membrane fraction or cell lysates); from tissue; host or cells: mouse brain membrane fraction (or cell lysates, not specified)
T3 sequence (O08914 1-579): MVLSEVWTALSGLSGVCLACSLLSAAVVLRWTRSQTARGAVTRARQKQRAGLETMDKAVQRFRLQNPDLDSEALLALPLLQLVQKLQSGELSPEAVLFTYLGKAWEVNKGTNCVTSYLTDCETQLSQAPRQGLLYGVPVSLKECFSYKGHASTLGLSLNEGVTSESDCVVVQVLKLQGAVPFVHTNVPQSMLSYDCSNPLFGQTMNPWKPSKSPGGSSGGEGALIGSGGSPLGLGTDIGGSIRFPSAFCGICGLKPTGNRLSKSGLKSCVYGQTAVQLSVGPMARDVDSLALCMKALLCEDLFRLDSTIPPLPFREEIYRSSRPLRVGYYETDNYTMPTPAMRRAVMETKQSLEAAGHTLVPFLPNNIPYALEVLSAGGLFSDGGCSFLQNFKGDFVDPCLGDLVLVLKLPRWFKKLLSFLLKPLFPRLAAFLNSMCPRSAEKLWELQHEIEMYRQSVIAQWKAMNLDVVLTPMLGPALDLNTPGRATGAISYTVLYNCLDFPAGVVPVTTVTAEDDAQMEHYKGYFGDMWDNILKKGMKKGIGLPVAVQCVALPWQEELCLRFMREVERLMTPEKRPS
The settings on record: for inhibition at 1 µM: 1 μM inhibitor, read-out: % Inhibition at 1 μM, B = FAAH; for inhibition at 10 µM: 10 μM inhibitor, read-out: % Inhibition at 10 μM, B = FAAH. Put shortly: as §1

The target in assay [4] is T4, PLA2G7 (Mus musculus, UniProt Q60963).
T4 construct: Proteomes (mouse brain membrane fraction or cell lysates); from tissue; host or cells: mouse brain membrane fraction (or cell lysates, not specified)
T4 sequence (Q60963 22-440): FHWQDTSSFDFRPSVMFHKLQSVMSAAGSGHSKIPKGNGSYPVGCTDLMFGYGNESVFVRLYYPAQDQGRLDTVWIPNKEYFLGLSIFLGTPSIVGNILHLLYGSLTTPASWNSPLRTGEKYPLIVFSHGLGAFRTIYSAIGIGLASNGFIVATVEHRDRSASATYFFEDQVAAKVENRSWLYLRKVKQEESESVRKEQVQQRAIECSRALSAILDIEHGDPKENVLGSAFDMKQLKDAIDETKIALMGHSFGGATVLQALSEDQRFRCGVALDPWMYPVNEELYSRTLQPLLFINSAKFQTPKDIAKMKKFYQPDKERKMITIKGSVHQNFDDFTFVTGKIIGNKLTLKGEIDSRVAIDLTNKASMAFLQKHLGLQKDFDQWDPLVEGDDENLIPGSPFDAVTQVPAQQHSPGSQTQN
The settings on record: for inhibition at 1 µM: 1 μM inhibitor, read-out: % Inhibition at 1 μM, D = PLA2G7; for inhibition at 10 µM: 10 μM inhibitor, read-out: % Inhibition at 10 μM, D = PLA2G7. In short, it runs like this:
as §1

As for `O=C(c1cnn(C(=O)N2CCN(Cc3ccccn3)CC2)c1)N1CCCCC1` [Example 72, Piperidin-1-yl(1-(4-(pyridin-2-ylmethyl)piperazine-1-carbonyl)-1H-pyrazol-4-yl)methanone], the inhibition at 1 µM was under 25% in assay [1], under 25% in assay [2], under 25% in assay [3] and over 75% in assay [4]. Also, the inhibition at 10 µM in assay [1] is over 75%; in assay [2] it was under 25%; in assay [3], over 75%; in assay [4] it was over 75%.
Turning to `O=C(c1cnn(C(=O)N2CCN(Cc3ccncn3)CC2)c1)N1CCCCC1` [Example 73, Piperidin-1-yl(1-(4-(pyrimidin-4-ylmethyl)piperazine-1-carbonyl)-1H-pyrazol-4-yl)methanone], the inhibition at 1 µM in assay [1] is under 25%; in assay [2] it was under 25%; in assay [3], under 25%; in assay [4], over 75%. The inhibition at 10 µM in assay [1] was over 75%; in assay [2] it was under 25%; in assay [3], 25 to 75%; in assay [4], over 75%.
Regarding `O=C(c1cnn(C(=O)N2CCN(Cc3nccs3)CC2)c1)N1CCCCC1` [Example 74, Piperidin-1-yl(1-(4-(thiazol-2-ylmethyl)piperazine-1-carbonyl)-1H-pyrazol-4-yl)methanone], the inhibition at 1 µM in assay [1] is over 75%; in assay [2], under 25%; in assay [3], under 25%; in assay [4] it was over 75%. The inhibition at 10 µM in assay [1] was over 75%; in assay [2] it was under 25%; in assay [3], over 75%; in assay [4], over 75%.
For the compound `O=C(c1cnn(C(=O)N2CCN(Cc3cncnc3)CC2)c1)N1CCCCC1` [Example 75, Piperidin-1-yl(1-(4-(pyrimidin-5-ylmethyl)piperazine-1-carbonyl)-1H-pyrazol-4-yl)methanone], the inhibition at 1 µM is under 25% in assay [1], under 25% in assay [2], under 25% in assay [3] and over 75% in assay [4]. Further, the inhibition at 10 µM in assay [1] was over 75%; in assay [2], under 25%; in assay [3], under 25%; in assay [4] it was over 75%.
With `Cc1cc(-c2ccccc2)ccc1CN1CCN(C(=O)n2cc(C(=O)N3CCCCC3)cn2)CC1` [Example 76, (4-((3-Methyl-[1,1′-biphenyl]-4-yl)methyl)piperazin-1-yl)(4-(piperidine-1-carbonyl)-1H-pyrazol-1-yl)methanone], the inhibition at 1 µM in assay [1], in assay [2], in assay [3] and in assay [4] was over 75% in each case. Moreover, the inhibition at 10 µM in assay [1], in assay [2], in assay [3] and in assay [4] was over 75% throughout. In addition, the IC50 in assay [1] (mouse brain membrane fraction or cell lysates, 30 min preincubation at 37° C., read-out: Mouse (IC50 value, nM) ABHD6) is 100 to 1000 nM; in assay [2] (mouse brain membrane fraction or cell lysates, 30 min preincubation at 37° C., read-out: Mouse (IC50 value, nM) MAGL), 100 to 1000 nM; in assay [3] (mouse brain membrane fraction or cell lysates, 30 min preincubation at 37° C., read-out: Mouse (IC50 value, nM) FAAH) it was under 100 nM.
On to `O=C(c1cnn(C(=O)N2CCN(Cc3ccccn3)CC2)c1)N1CCOCC1` [Example 77, (4-(Morpholine-4-carbonyl)-1H-pyrazol-1-yl)(4-(pyridin-2-ylmethyl)piperazin-1-yl)methanone], for which the inhibition at 1 µM in assay [1] and in assay [4] was under 25% throughout. For the same compound, the inhibition at 10 µM in assay [1] is over 75%; in assay [2] it was under 25%; in assay [3], under 25%; in assay [4], over 75%.
`O=C(c1cnn(C(=O)N2CCN(Cc3ccc4c(c3)OCO4)CC2)c1)N1CCCC1` [Example 78, (4-(Benzo[d][1,3]dioxol-5-ylmethyl)piperazin-1-yl)(4-(pyrrolidine-1-carbonyl)-1H-pyrazol-1-yl)methanone]: the inhibition at 1 µM in assay [1] is over 75%; in assay [2], under 25%; in assay [3] it was over 75%; in assay [4], under 25%. Also, the inhibition at 10 µM in assay [1], in assay [2], in assay [3] and in assay [4] was over 75% in each case.
For the compound `O=C(c1cnn(C(=O)N2CCN(Cc3ccncc3)CC2)c1)N1CCCC1` [Example 79, (4-(Pyridin-4-ylmethyl)piperazin-1-yl)(4-(pyrrolidine-1-carbonyl)-1H-pyrazol-1-yl)methanone], the values for the inhibition at 1 µM in assay [1] and in assay [4] were 25 to 75% and under 25%, respectively. The inhibition at 10 µM in assay [1] was over 75%; in assay [2], under 25%; in assay [3], 25 to 75%; in assay [4], over 75%.
In the case of `O=C(c1cnn(C(=O)N2CCN(Cc3cccnc3)CC2)c1)N1CCCC1` [Example 80, (4-(Pyridin-3-ylmethyl)piperazin-1-yl)(4-(pyrrolidine-1-carbonyl)-1H-pyrazol-1-yl)methanone], the inhibition at 1 µM in assay [1] is 25 to 75%; in assay [4], under 25%. The inhibition at 10 µM is over 75% in assay [1], under 25% in assay [2], 25 to 75% in assay [3] and over 75% in assay [4].
For the compound `O=C(c1cnn(C(=O)N2CCN(Cc3ccccn3)CC2)c1)N1CCCC1` [Example 81, (4-(Pyridin-2-ylmethyl)piperazin-1-yl)(4-(pyrrolidine-1-carbonyl)-1H-pyrazol-1-yl)methanone], the inhibition at 1 µM in assay [1] and in assay [4] was under 25% each time. Further, the inhibition at 10 µM was over 75% in assay [1], under 25% in assay [2], over 75% in assay [3] and over 75% in assay [4].
For the compound `O=C(c1cnn(C(=O)N2CCN(Cc3ccncn3)CC2)c1)N1CCCC1` [Example 82, (4-(Pyrimidin-4-ylmethyl)piperazin-1-yl)(4-(pyrrolidine-1-carbonyl)-1H-pyrazol-1-yl)methanone], the inhibition at 1 µM in assay [1] and in assay [4] was under 25% each time. For the same compound, the inhibition at 10 µM was over 75% in assay [1], under 25% in assay [2], 25 to 75% in assay [3] and over 75% in assay [4].
On to `O=C(c1cnn(C(=O)N2CCN(Cc3nccs3)CC2)c1)N1CCCC1` [Example 83, Pyrrolidin-1-yl(1-(4-(thiazol-2-ylmethyl)piperazine-1-carbonyl)-1H-pyrazol-4-yl)methanone], for which the inhibition at 1 µM in assay [1], in assay [2], in assay [3] and in assay [4] was under 25% each time. The inhibition at 10 µM in assay [1] is over 75%; in assay [2], under 25%; in assay [3], over 75%; in assay [4] it was over 75%.
